Assay results: PMC11292009, “Mapping protein binding sites by photoreactive fragment pharmacophores” (Communications Chemistry, 2024)
Values joined by “and” are separate entries in the source; they are usually repeats but may differ in a detail not shown here. Equal entries are not always repeated.

What was measured:
Type in all cases: cell-based, human
[1] = system: SW48-PAR cells; assay: MTT cell viability assay, SW48-PAR; conditions: for cell viability: replicates, in % (unit assumed)
Description: (§1) Pancreatic cancer cell lines PANC-1 (cat. no. CRL-1469), SW1990 (cat. no. CRL-2172) were obtained from ATCC (American Type Culture Collection). Genetically modified isogeneic colon cancer cell lines SW48-PAR and SW48-G12D were obtained from Horizon Discovery Ltd. PANC-1 (human pancreatic cancer, KRas^G12D), SW1990 (human pancreatic cancer, KRas^G12D), SW48-PAR (human colon cancer; parental cell line KRas^wt), and SW48-G12D (human colon cancer; heterozygous knockin of the KRas^G12D activating mutation) cancer cell lines were cultured in Roswell Park Memorial Institute Medium (RPMI; Biosera, Nuaille, France), supplemented with 10% heat-inactivated Fetal Bovine Serum (FBS; Biosera), and with 1% Penicillin/Streptomycin (Biosera). Cells were cultured in sterile T75 flasks with ventilation cap (Sarstedt, Nümbrecht, Germany) at 37 °C in a humidified atmosphere with 5% CO2 in ESCO CelCulture Incubator (ESCO, Friedberg, Germany). Manipulations with the cells were performed in biosafety cabinet (laminar) ESCO Sentinel Gold class II model AC2-4E8 (ESCO).
(§2) After standard harvesting of the cells by trypsin-EDTA (Biosera), 7 × 10^3 cells per well depending on the cell line, were seeded in serum-containing growth medium to 96-well plates and incubated. After 24 h, cells were treated with various concentrations of fragments (32 nM–100 μM), dissolved in serum-containing medium, and incubated under standard conditions. Control wells were treated with medium. Final concentration of serum was 2.5%, final concentration of DMSO was 0.2%. Treatment was for 72 h continuously.
(§3) Afterwards, MTT assay was performed in order to determine cell viability, by adding 20 μL of MTT solution (5 mg/mL in PBS) to each well and after 2 h of incubation at 37 °C, the supernatant was removed. The formazan crystals were dissolved in 100 μL of a 1:1 solution of DMSO (Sigma-Aldrich):EtOH (Molar Chemicals) and the absorbance was measured after 15 min at λ = 570 nm by using a microplate reader (BioTek 800TS, Agilent, Santa Clara, CA, USA). The IC50 values of the fragments were calculated using GraphPad Prism 6 (GraphPad Software, San Diego, CA, USA). The experiments were done in triplicate, and each experiment was repeated two times.

[2] = system: SW1990 cells; assay: MTT cell viability assay, SW1990; conditions: for cell viability: replicates, in % (unit assumed)
Description: as §1, §2, §3

[3] = system: SW48-G12D cells; assay: MTT cell viability assay, SW48-G12D; conditions: for cell viability: replicates, in % (unit assumed)
Description: as §1, §2, §3

[4] = system: PANC-1 cells; assay: MTT cell viability assay, PANC-1; conditions: for cell viability: replicates
Description: as §1, §2, §3

**Q.** How did the Antiproliferative effect ([1]; MTT, 72 h) turn out when `Cc1ncc(CO)c(CNC(=O)CCC2(C)N=N2)c1O` [PhP072, Cc1ncc(CO)c(c1O)CNC(=O)CCC2(C)N=N2] was run?
**A.** Its Antiproliferative effect is “antiproliferative activity”.

**Q.** What about the cell viability ([1]; [PhP072] 3.2e-8 M) of the same compound?
**A.** The cell viability was 110.532 and 99.0425 and 106.761 and 103.567 and 100.905.

**Q.** What about the cell viability ([1]; [PhP072] 1.6e-7 M) of the same compound?
**A.** The cell viability was 106.815 and 103.774 and 96.677 and 105.91 and 101.544 and 99.8403.

**Q.** What about the cell viability ([1]; [PhP072] 8e-7 M) of the same compound?
**A.** The cell viability was 103.098 and 102.084 and 99.3805 and 101.65 and 100.905 and 100.16.

**Q.** And the cell viability ([1]; [PhP072] 4e-6 M)?
**A.** The cell viability was 97.3529 and 105.125 and 97.3912 and 92.7061 and 92.8126.

**Q.** And the cell viability ([1]; [PhP072] 2e-5 M)?
**A.** Its cell viability is 98.3667 and 91.9459 and 92.9597 and 81.7386 and 78.0118 and 75.2433.

**Q.** What about the cell viability ([1]; [PhP072] 0.0001 M) of the same compound?
**A.** The cell viability was 78.0907 and 76.0631 and 71.332 and 66.8313 and 68.322 and 64.4887.

**Q.** What about the IC50 ([2]; Homo sapiens, read-out: IC50, antiproliferative activity, SW1990, MTT, 72 h) of the same compound?
**A.** The IC50 was 17.2 µM.

**Q.** What about the cell viability ([2]; SW1990, [PhP072] 3.2e-8 M) of the same compound?
**A.** Its cell viability is 101.695 and 98.3609 and 102.528 and 107.265 and 99.8137 and 96.5538.

**Q.** And the cell viability ([2]; SW1990, [PhP072] 1.6e-7 M)?
**A.** The cell viability was 103.195 and 101.49 and 102.515 and 96.4606.

**Q.** And the cell viability ([2]; SW1990, [PhP072] 8e-7 M)?
**A.** Its cell viability is 103.528 and 101.528 and 95.5272 and 94.039 and 99.4411 and 93.387.

**Q.** And the cell viability ([2]; SW1990, [PhP072] 4e-6 M)?
**A.** The cell viability was 101.861 and 97.8608 and 97.1941 and 99.9069 and 97.2989 and 95.6224.

**Q.** And the cell viability ([2]; SW1990, [PhP072] 2e-5 M)?
**A.** The cell viability was 90.5265 and 81.8586 and 88.0261 and 89.1956 and 90.8722 and 79.3227.

**Q.** What about the cell viability ([2]; SW1990, [PhP072] 0.0001 M) of the same compound?
**A.** The cell viability was 62.6893 and 57.5219 and 66.8565 and 62.4641 and 63.023 and 60.1356.

**Q.** And the Antiproliferative effect ([3]; MTT, 72 h)?
**A.** Its Antiproliferative effect is “antiproliferative activity”.

**Q.** And the cell viability ([3]; [PhP072] 3.2e-8 M)?
**A.** The cell viability was 102.762 and 97.2381 and 95.6914 and 100.978 and 97.4052 and 99.447.

**Q.** What about the cell viability ([3]; [PhP072] 1.6e-7 M) of the same compound?
**A.** The cell viability was 100.994 and 98.1219 and 99.0057 and 100.978 and 99.7022 and 99.9575.

**Q.** What about the cell viability ([3]; [PhP072] 8e-7 M) of the same compound?
**A.** The cell viability was 99.8895 and 99.2267 and 100.552 and 98.9365 and 101.489.

**Q.** What about the cell viability ([3]; [PhP072] 4e-6 M) of the same compound?
**A.** The cell viability was 98.5638 and 96.7962 and 95.0285 and 98.9365 and 100.723 and 98.6813.

**Q.** What about the cell viability ([3]; [PhP072] 2e-5 M) of the same compound?
**A.** The cell viability was 91.4933 and 92.1561 and 91.9352 and 92.8111 and 94.0872 and 91.5349.

**Q.** And the cell viability ([3]; [PhP072] 0.0001 M)?
**A.** The cell viability was 75.1427 and 76.0265 and 77.5732 and 78.5183 and 77.2421 and 80.3049.

**Q.** What about the IC50 ([4]; Homo sapiens, read-out: IC50, antiproliferative activity, PANC-1, MTT, 72 h) of the same compound?
**A.** Its IC50 is 22.6 µM.

**Q.** What about the cell viability ([4]; PANC-1, [PhP072] 3.2e-8 M, in % (unit assumed)) of the same compound?
**A.** The cell viability was 94.1678 and 97.1333 and 95.7988 and 102.516 and 102.977 and 106.78.

**Q.** And the cell viability ([4]; PANC-1, [PhP072] 1.6e-7 M)?
**A.** Its cell viability is 92.8333 and 84.2333 and 97.1333 and 102.977 (2×) and 103.899.

**Q.** What about the cell viability ([4]; PANC-1, [PhP072] 8e-7 M) of the same compound?
**A.** Its cell viability is 87.6436 and 92.0919 and 90.4609 and 96.2933 (2×) and 94.7953.

**Q.** What about the cell viability ([4]; PANC-1, [PhP072] 4e-6 M, in % (unit assumed)) of the same compound?
**A.** The cell viability was 82.1574 and 83.0471 and 79.785 and 89.6098 and 90.0707 and 84.5396.

**Q.** And the cell viability ([4]; PANC-1, [PhP072] 2e-5 M, in % (unit assumed))?
**A.** The cell viability was 72.9643 and 73.7057 and 70.7401 and 83.3872 and 78.8931 and 79.2388.

**Q.** What about the cell viability ([4]; PANC-1, [PhP072] 0.0001 M) of the same compound?
**A.** The cell viability was 57.9884 and 55.9125 and 55.7642 and 57.9207 and 64.7194 (2×).
